Assay results reported in patent US20050209157A1, “Short bioactive peptides and methods for their use” (priority 2001, published 2005).
No end group written: not given here.

Columns and labels:
S. epidermidis C621 = type: cell-based, Staphylococcus epidermidis; settings: Table 15
[1] = test system: Pseudomonas aeruginosa H187; type: cell-based; settings: Table 15; in µg/mL
S. typhimurium 14028S = type: cell-based, Salmonella typhimurium; settings: Table 14
S. aureus (MRSA) = type: cell-based, Staphylococcus aureus; settings: Table 15, strain SAP0017; in µg/mL
P. aeruginosa H374 = type: cell-based, Pseudomonas aeruginosa; settings: Table 14; in µg/mL
E. coli UB1005 = type: cell-based, Escherichia coli; settings: Table 14
Candida albicans 105 = type: cell-based; settings: Table 15; in µg/mL
[2] = test system: yeast (Saccharomyces cerevisiae); test: Antimicrobial assay I, yeast assay in RPMI 1640; type: cell-based; settings: RPMI 1640 media
[3] = test system: human leukocyte (WBC) cells; test: Stimulation and proliferation of leukocytes, Alamar Blue; type: cell-based; settings: for Peptide treated cell activity Percent stimulation relative to control: 48 hours
Method: In vitro viability of human leukocyte cells in the presence of different peptides at different concentrations was determined by an Alamar Blue protocol. Alamar Blue (Promega, Madison, Wis.) is an indicator dye, formulated to measure quantitatively the proliferation and cytotoxicity of the cells. The dye consists of an oxidation-reduction (redox) indicator that yields a calorimetric change and a fluorescent signal in response to cellular metabolic activity.
Assay protocol: Blood from a human was drawn and centrifuged at 1500 rpm for 15 minutes at room temperature. The buffy coat cells at the plasma-red blood cell interface were aspirated. Buffy coat cells (mainly lymphocyte cells) were then transferred into 15 ml centrifuge tubes containing 5 ml of RPMI-1640 medium+10% Fetal Bovine Serum (Gibco, Grand Island, N.Y.). Additional medium was added to the tubes to bring the volume up to 10 ml. The buffy coat suspension was then carefully layered on 5 ml of Histopaque (Sigma Chemical Co., St. Louis, Mo.) and centrifuged at 1500 rpm for 30 minutes at room temperature. The interface which is mostly PBMCs (peripheral mononuclear cells) was aspirated and transferred to a 15 ml conical centrifuge tube and, resuspended in 2 ml cold RPMI-1640 and brought up to 15 ml with cold RPMI-1640 medium. Cells were centrifuged at 1500 rpm for 10 minutes. The supernatant was then aspirated and discarded. The cell pellet was re-suspended in 1 ml of cold RPMI 1640 and brought up to 15 ml with RPMI medium. This step was repeated twice, except that in the last step, the cells were resuspended with 1 ml of cold RPMI-1640 medium and cell counts were performed with a hemocytometer according to the Sigma cell culture catalogue.
Pokewood mitogen was used as a control along with positive and negative controls. Negative control cells were killed with 70% methanol. Positive (+) control cells were incubated in RPMI medium (untreated). […] of AlamarBlue was added to the cells, and readings were taken after 24 hours, 48 hours, 72 hours, and 96 hours using a fluorimeter (excitation 544/transmission 590 nm).
Calculations were performed using the following formula. The peptide treated sample and positive control were adjusted for negative control. [formula]
Using the protocol described immediately above, about 100-150 peptides were screened for their stimulatory and/or inhibitory actions upon the growth of human leukocyte (“WBC”) cells as compared to the growth of untreated positive control cells.
The Alamar Blue stain used in the protocol permeates both cell and nuclear membranes, and is metabolized in the mitochondria to cause the change in color. The resulting fluorometric response is therefore a result of total mitochondrial activity caused by cell stimulation and/or mitosis (cell proliferation).

WI38 = settings: MTT, 24 hours with peptide
[4] = test system: Staphylococcus aureus ATCC 6538; test: Antimicrobial assay I, MIC by OD measurement; type: cell-based; settings: 37° C. for 24 hours, absorbance 620 nm
[5] = test system: Pseudomonas aeruginosa ATCC 9027; test: Antimicrobial assay I, MIC by OD measurement; type: cell-based; settings: 37° C. for 24 hours, absorbance 620 nm
MCF7 = test: Anti-cancer assay, MTT, LD50; type: cell-based; settings: MCF7 breast adenocarcinoma line, MTT, 24 hours with peptide
From the text: (§1) Numbers are LD50 values (μg/mL).

SW480 = test: Anti-cancer assay, MTT, LD50; type: cell-based; settings: SW480 colon adenocarcinoma line, 24 hours with peptide
From the text: as §1

PC3 = test: Anti-cancer assay, MTT, LD50; type: cell-based; settings: 24 hours with peptide, prostate adenocarcinoma
From the text: as §1

BMKC = test: Anti-cancer assay, MTT, LD50; type: cell-based; settings: BMKC cloned melanoma line, 24 hours with peptide
From the text: as §1

HeLaS3 = test: Anti-cancer assay, MTT, LD50; type: cell-based; settings: 24 hours with peptide, cervical carcinoma
From the text: as §1

H1299 = test: Anti-cancer assay, MTT, LD50; type: cell-based; settings: 24 hours with peptide, lung large cell carcinoma
From the text: as §1

[6] = test system: human red blood cells (RBC); test: in vitro; type: cell-based; settings: for Peptide toxicity RBC LD/50: human red blood cells
in vitro = settings: human, WI38 normal lung fibroblast cells, Peptide toxicity WI-38 LD/50, human fibroblast cells

Substance | MIC S. epidermidis C621 (S. epidermidis C621) | MIC P. aeruginosa H187 [1] | MIC S. typhimurium 14028S (S. typhimurium 14028S) | MIC S. aureus SAP0017 (S. aureus (MRSA)) | MIC P. aeruginosa H374 (P. aeruginosa H374) | MIC E. coli UB1005 (E. coli UB1005) | MIC C. albicans 105 (Candida albicans 105) | Peptide treated cell activity Percent stimulation relative to control ([3]; 0.1 ug/ml) | Peptide treated cell activity Percent stimulation relative to control ([3]; 1 ug/ml) | Peptide treated cell activity Percent stimulation relative to control ([3]; 10 ug/ml) | Peptide treated cell activity Percent stimulation relative to control ([3]; 100 ug/ml) | Peptide treated cell activity Percent stimulation relative to control ([3]; 500 ug/ml) | CC50 at 24 h (in vitro) | Peptide toxicity RBC LD/50 [6] | further results
YAKLLAKLAKKAL-NH2 [P155 (117)] | > 128 µg/mL | >128 | > 128 µg/mL | >128 | >128 | > 128 µg/mL | >128 | – | – | – | – | – | – | – | –
FAKKLAKALL-NH2 [P58 (38)] | > 128 µg/mL | >128 | > 128 µg/mL | >128 | >128 | > 128 µg/mL | 64 | – | – | – | – | – | – | – | –
FAKLLAKKLL-NH2 [P57 (37)] | > 128 µg/mL | >128 | > 128 µg/mL | >128 | >128 | > 128 µg/mL | 128 | – | – | – | – | – | – | – | –
KAKLAKKALAKLL-NH2 [P149 (111)] | > 128 µg/mL | >128 | > 128 µg/mL | >128 | 128 | 32 µg/mL | 128 | – | – | – | – | – | – | – | –
FAKGVGKVGKKAL-NH2 [P137 (99)] | > 128 µg/mL | >128 | > 128 µg/mL | >128 | >128 | > 128 µg/mL | >128 | – | – | – | – | – | – | – | –
FAKLLAKLAKKAA-NH2 [P93 (59)] | > 128 µg/mL | >128 | > 128 µg/mL | >128 | 128 | 128 µg/mL | 64 | – | – | – | – | – | – | – | –
FALALKAKKL-NH2 [P182] | – | – | – | – | – | – | – | – | – | – | – | – | – | – | yeast (MIC or MFC) [2]: > (> indicates greater than 200 μg/mL); stimulatory and/or inhibitory action on growth of human leukocyte (WBC) cells ([3]; compared to untreated positive control cells, Alamar Blue): stimulatory (and/or proliferative) at all concentrations through 500 μg/ml; WI38 LD50 (WI38; normal fibroblast line): > (> indicates greater than 1000); LD50 WI38 (WI38; WI38 normal lung fibroblast line): > (> indicates greater than 1000); staph6538 (MIC) [4]: > (> indicates greater than 200 μg/mL); paerug9027 (MIC) [5]: > (> indicates greater than 200 μg/mL); LD50 MCF7 (MCF7): > (> indicates greater than 1000); LD50 SW480 (SW480): > (> indicates greater than 1000); PC3 LD50 (PC3): > (> indicates greater than 1000); LD50 BMKC (BMKC): > (> indicates greater than 1000); HeLaS3 LD50 (HeLaS3): > (> indicates greater than 1000); H1299 LD50 (H1299): > (> indicates greater than 1000); LD50 ([6]; hemolytic assay, concentration at 50% hemolysis, 1 hour at 37° C.): > (> indicates greater than 1000)
FALALKALKKLKKALKKAL-NH2 [compound 12] | – | – | – | – | – | – | – | 108% | 110% | 99% | 30% | 23% | 37 µg/mL | 125 | –
FAKLLAKALKKAL-NH2 [compound 66] | – | – | – | – | – | – | – | 100% | 102% | 97% | 37% | 17% | 210 µg/mL | 500 | –
FALALKALKKLAKKLKKLAKKAL-NH2 [compound 10] | – | – | – | – | – | – | – | 117% | 104% | 99% | 27% | 27% | 24 µg/mL | 60 | –
FAVGLRAIKRALKKLRRGVRKVAKDL-NH2 [compound 119] | – | – | – | – | – | – | – | 88% | 108% | 54% | 117% | 89% | 500 µg/mL | 850 | –
FAKLLAKLAKKLL-NH2 [compound 25] | – | – | – | – | – | – | – | 78% | 82% | 71% | 14% | 12% | 5 µg/mL | 20 | –
FALKALKKLKKALKKAL-NH2 [compound 115] | – | – | – | – | – | – | – | 93% | 92% | 37% | 72% | 29% | 130 µg/mL | 780 | –
FAKLLAKLAKAKA-NH2 [compound 61] | – | – | – | – | – | – | – | 110% | 115% | 116% | 124% | 114% | > 1000 µg/mL | >1000 | –
